{"source": "patent US11478483B2", "about": "“Method of treating hypertension” (Cipla Limited, priority 2017, dated 2022)", "key": {"[1]": {"settings": "after oral administration; cited from earlier work"}, "[2]": {"system": "rats with monocrotaline induced pulmonary arterial hypertension", "experiment": "Pulmonary arterial hypertension efficacy model: monocrotaline rat, hemodynamic evaluation", "type": "in vivo, Male Sprague-Dawley rats", "settings": "for Right Ventricle (RV), Mean / Right Ventricle/Body Weight, Mean / Right Ventricular Pressure, Mean / Right Ventricular Systolic Pressure (RVSP), Mean: group mean; for Right Ventricle (RV), Mean / Right Ventricle/Body Weight, Mean / Right Ventricular Pressure, Mean / Right Ventricular Systolic Pressure (RVSP), Mean / Right Ventricle (RV) / Right Ventricle/Body Weight / Right Ventricular Pressure / Right Ventricular Systolic Pressure (RVSP): MCT 50 mg/kg s.c., Day 28; for Right Ventricle (RV) / Right Ventricle/Body Weight / Right Ventricular Pressure / Right Ventricular Systolic Pressure (RVSP): individual animals", "protocol": "The studies were conducted for hemodynamic evaluation of quetiapine in anesthetized sprague dawley rats treated with monocrotaline (“MCT”) to induce pulmonary arterial hypertension. Sildenafil was used as an internal control to compare the effects of Quetiapine.\nThe effects of Quetiapine were evaluated in rats with monocrotaline induced pulmonary arterial hypertension using sildenafil as standard care treatment. Male Sprague-Dawley rats were orally administered vehicle, Quetiapine (40 mg/kg, divided into a BID regimen given every day for 28 days starting on Day 1), or sildenafil (100 mg/kg, administered once daily) (n=12 in each group). Rats received a single injection of monocrotaline (50 mg/kg, s.c.) on Study Day 1. On the twenty-eighth day following monocrotaline dosing, the rats were anesthetized with ketamine/xylazine for terminal monitoring of pulmonary and systemic arterial pressures along with heart rate.\nVehicle (0.5% Methylcellulose+0.2% Tween 80 in deionized water, Quetiapine (40 mg/kg dib for 28 days; Sildenafil ([…], administered once daily)\nMale Sprague-Dawley rats in groups I, II, III and IV and V were administered 50 mg/kg of body weight of Monocrotaline in DMSO subcutaneously to induce PAH on day 1. The DMSO group (Group I, negative control) received a single dose of DMSO subcutaneously on day 1. The vehicle group received 5 ml of vehicle every morning. The Quetiapine as well as sildenafil groups were orally administered Quetiapine (40 mg/kg, divided into a BID regimen given every day for 28 days starting on Day 1), or sildenafil (100 mg/kg, administered once daily). On the twenty-eighth day after monocrotaline dosing, the rats were anesthetized with ketamine/xylazine for terminal monitoring of pulmonary and systemic arterial pressures along with heart rate."}, "[3]": {"settings": "Quetiapine 40 mg/Kg bid p.o. for 28 days"}, "[4]": {"settings": "Sildenafil 100 mg/kg p.o. once daily"}}, "note": "Where “and” joins values, the source holds several entries; their conditions need not be identical. Equal entries are not always repeated. Structures can show the parent of a compound that is named as a salt."}
{"smiles": "OCCOCCN1CCN(C2=Nc3ccccc3Sc3ccccc32)CC1", "note": "[Quetiapine fumarate]", "values": [{"measurement": "time to reach peak plasma concentrations", "setting": "[1]", "result": 1.5, "unit": "h"}]}
{"smiles": "OCCOCCN1CCN(C2=Nc3ccccc3Sc3ccccc32)CC1", "note": "[Quetiapine]", "values": [{"measurement": "activity in controlling or reducing PAH compared with Sildenafil", "setting": "[2]; MCT rats, Quetiapine 40 mg/kg bid vs Sildenafil 100 mg/kg", "result": "comparable among with Sildenafil activity"}, {"measurement": "systolic and mean pulmonary arterial pressures compared to the vehicle group", "setting": "[2]; after 28 days, Quetiapine 40 mg/kg bid, MCT rats", "result": "differences in systolic and mean pulmonary arterial pressures"}, {"measurement": "Right Ventricle (RV), Mean", "setting": "[2]; [3]", "result": 0.276, "unit": "g"}, {"measurement": "Right Ventricle/Body Weight, Mean", "setting": "[2]; [3]", "result": 0.0008, "unit": "g"}, {"measurement": "Right Ventricular Pressure, Mean", "setting": "[2]; [3]", "result": 22.414, "unit": "mmHg"}, {"measurement": "Right Ventricular Systolic Pressure (RVSP), Mean", "setting": "[2]; [3]", "result": 47.511, "unit": "mmHg"}, {"measurement": "Right Ventricle (RV)", "setting": "[2]; [3]", "result": "0.336 g and 0.337 g and 0.312 g and 0.260 g and 0.193 g and 0.353 g and 0.225 g and 0.276 g and 0.190 g"}, {"measurement": "Right Ventricle/Body Weight", "setting": "[2]; [3]", "result": "0.0010 g (3×) and 0.0007 g and 0.0006 g (3×) and 0.0012 g and 0.0008 g"}, {"measurement": "Right Ventricular Pressure", "setting": "[2]; [3]", "result": "27.940 mmHg and 21.646 mmHg and 22.967 mmHg and 16.792 mmHg and 19.956 mmHg and 24.109 mmHg and 28.929 mmHg and 18.440 mmHg and 20.951 mmHg"}, {"measurement": "Right Ventricular Systolic Pressure (RVSP)", "setting": "[2]; [3]", "result": "54.140 mmHg and 47.463 mmHg and 43.052 mmHg and 36.213 mmHg and 41.515 mmHg and 68.747 mmHg and 54.503 mmHg and 37.045 mmHg and 44.925 mmHg"}]}
{"smiles": "CCCc1nn(C)c2c(=O)[nH]c(-c3cc(S(=O)(=O)N4CCN(C)CC4)ccc3OCC)nc12", "note": "[Sildenafil]", "values": [{"measurement": "Right Ventricle (RV), Mean", "setting": "[2]; [4]", "result": 0.247, "unit": "g"}, {"measurement": "Right Ventricle/Body Weight, Mean", "setting": "[2]; [4]", "result": 0.0006, "unit": "g"}, {"measurement": "Right Ventricular Pressure, Mean", "setting": "[2]; [4]", "result": 13.929, "unit": "mmHg"}, {"measurement": "Right Ventricular Systolic Pressure (RVSP), Mean", "setting": "[2]; [4]", "result": 29.648, "unit": "mmHg"}, {"measurement": "Right Ventricle (RV)", "setting": "[2]; [4]", "result": "0.236 g and 0.440 g and 0.228 g and 0.207 g and 0.232 g and 0.308 g and 0.229 g and 0.261 g and 0.083 g"}, {"measurement": "Right Ventricle/Body Weight", "setting": "[2]; [4]", "result": "0.0007 g (3×) and 0.0009 g and 0.0006 g (4×) and 0.0003 g"}, {"measurement": "Right Ventricular Pressure", "setting": "[2]; [4]", "result": "16.804 mmHg and 11.481 mmHg and 15.226 mmHg and 11.673 mmHg and 14.427 mmHg and 14.139 mmHg and 16.310 mmHg and 12.947 mmHg and 12.352 mmHg"}, {"measurement": "Right Ventricular Systolic Pressure (RVSP)", "setting": "[2]; [4]", "result": "33.864 mmHg and 23.627 mmHg and 31.322 mmHg and 24.486 mmHg and 29.450 mmHg and 31.316 mmHg and 32.922 mmHg and 34.262 mmHg and 25.579 mmHg"}]}
